Measured values published in US9273003B2, “Methods of treating lymphoma and rheumatoid arthritis with cyclopentyl (2S)-cyclohexyl[({6-[3-(hydroxyamino)-3-oxopropyl]pyridin-3-yl}methyl)amino]acetate” (GlaxoSmithKline Intellectual Property Development Limited, priority 2006, dated 2016).

Columns and labels:
[1] = biological target: histone deacetylase activity (HeLa nuclear extract); test: HDAC fluorescent activity assay (Fluor de Lys, Biomol); type: biochemical; conditions: IC50 allocated to ranges, read-out: HDAC activity
How it was run: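 HeLa nuclear extract as HDAC source incubated with acetyl-lysine Fluor de Lys substrate ± inhibitor; developer then releases fluorophore from deacetylated substrate. Activity as % of vehicle control after no-enzyme background subtraction; IC50 from eight-point variable-slope sigmoidal fit.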

U937 cells = test: U937 cell inhibition assay (WST-1 cell viability); type: cell-based; conditions: Homo sapiens, U-937; U937 cells; IC50 allocated to ranges; read-out: U937 activity
How it was run: (§1)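 Log-phase cells seeded at 1000-2000/well, grown 24 h, then exposed to compound for 72-96 h before WST-1 viability readout. Eight concentrations (top 10 μM final, 3-fold steps), 6 replicates; % inhibition versus DMSO, IC50 by sigmoidal variable-slope fit.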

HUT78 cells = test: HUT cell inhibition assay (WST-1 cell viability); type: cell-based; conditions: Homo sapiens; HUT78 cells; IC50 allocated to ranges; read-out: HUT activity
How it was run: as §1

HeLa cells = test: HeLa cell inhibition assay (sulphorhodamine B cell viability); type: cell-based; conditions: Homo sapiens, IC50 allocated to ranges
Method: HeLa cells growing in log phase were harvested and seeded at 1000 cells/well (200 μl final volume) into 96-well tissue culture plates. Following 24 h of cell growth cells were treated with compounds (final concentration of 20 μM). Plates were then re-incubated for a further 72 h before a sulphorhodamine B (SRB) cell viability assay was conducted according to the methodology described by Skehan et al, J. Natl. Canc. Inst., 1990, 82, 1107-1112.
Data were expressed as a percentage inhibition of the control, measured in the absence of inhibitor, as follows:— % inhibition=100−[(S^i/S^o)×100] where S^i is the signal in the presence of inhibitor and S^o is the signal in the presence of DMSO.
IC50 values were determined by non-linear regression analysis, after fitting the results of eight data points to the equation for sigmoidal dose response with variable slope (% activity against log concentration of Compound), using Graphpad Prism software.

SMILES | IC50 [1] [nM] | IC50 (U937 cells) [nM] | IC50 (HeLa cells) [nM] | IC50 (HUT78 cells) [nM]
O=C(/C=C/c1ccc(C(=O)N[C@H](C(=O)OC2CCCC2)C2CCCCC2)cc1)NO [Example 7, Cyclopentyl (2S)-cyclohexyl({4-[(1E)-3-(hydroxyamino)-3-oxoprop-1-en-1-yl]benzoyl}amino)acetate] | 101 to 1000 | 331 to 3300 | > 3300 | 331 to 3300
CC(C)(C)OC[C@H](NCCCOc1ccc(/C=C/C(=O)NO)cc1)C(=O)OC1CCCC1 [Example 10, Cyclopentyl O-tert-butyl-N-(3-{4-[(1E)-3-(hydroxyamino)-3-oxoprop-1-en-1-yl]phenoxy}propyl)-L-serinate] | 101 to 1000 | 331 to 3300 | 331 to 3300 | 331 to 3300
CC(C)C[C@H](NCCCOc1ccc(/C=C/C(=O)NO)cc1)C(=O)OC1CCCC1 [Example 11, Cyclopentyl N-(3-{4-[(1E)-3-(hydroxyamino)-3-oxoprop-1-en-1-yl]phenoxy}propyl)-L-leucinate] | 101 to 1000 | 331 to 3300 | > 3300 | 331 to 3300
O=C(/C=C/c1cccc(CN[C@H](C(=O)OC2CCCC2)c2ccccc2)c1)NO [Example 13, Cyclopentyl (2S)-({3-[(1E)-3-(hydroxyamino)-3-oxoprop-1-en-1-yl]benzyl}amino)(phenyl)acetate] | > 1000 | > 3300 | > 3300 | 331 to 3300
CC(C)C[C@H](NC(=O)c1ccc(/C=C/C(=O)NO)cc1)C(=O)OC1CCCC1 [Example 8, Cyclopentyl N-{4-[(1E)-3-(hydroxyamino)-3-oxoprop-1-en-1-yl]benzoyl}-L-leucinate] | 101 to 1000 | 331 to 3300 | 331 to 3300 | 331 to 3300
CC1CCC(OC(=O)[C@@H](NCc2ccc(/C=C/C(=O)NO)cc2)C2CCCCC2)C1 (stereo partly drawn) [Example 28, 3-Methylcyclopentyl (2S)-cyclohexyl({4-[(1E)-3-(hydroxyamino)-3-oxoprop-1-en-1-yl]benzyl}amino)acetate] | 101 to 1000 | < 330 | 331 to 3300 | 331 to 3300
O=C(/C=C/c1cccc(CNCc2ccc(CN[C@H](C(=O)OC3CCCC3)C3CCCCC3)cc2)c1)NO [Example 73, Cyclopentyl (2S)-cyclohexyl({4-[({3-[(1E)-3-(hydroxyamino)-3-oxoprop-1-en-1-yl]benzyl}amino)methyl]benzyl}amino)acetate] | 101 to 1000 | 331 to 3300 | 331 to 3300 | 331 to 3300
CC(C)(C)OC[C@H](NCc1ccc(/C=C/C(=O)NO)cc1)C(=O)OC1CCCC1 [Example 16, Cyclopentyl O-tert-butyl-N-{4-[(1E)-3-(hydroxyamino)-3-oxoprop-1-en-1-yl]benzyl}-L-serinate] | 101 to 1000 | 331 to 3300 | > 3300 | 331 to 3300
O=C(/C=C/c1ccc(OCCCN[C@H](C(=O)OC2CCCC2)C2CCCCC2)cc1)NO [Example 9, Cyclopentyl (2S)-cyclohexyl[(3-{4-[(1E)-3-(hydroxyamino)-3-oxoprop-1-en-1-yl]phenoxy}propyl)amino]acetate] | > 1000 | > 3300 | > 3300 | > 3300
CC(C)(C)OC[C@H](NS(=O)(=O)c1cccc(/C=C/C(=O)NO)c1)C(=O)OC1CCCC1 [Example 4, Cyclopentyl O-tert-butyl-N-({3-[(1E)-3-(hydroxyamino)-3-oxoprop-1-en-1-yl]phenyl}sulfonyl)-L-serinate] | < 100 | 331 to 3300 | 331 to 3300 | 331 to 3300
CC(C)(C)OC[C@H](NC1CCN(Cc2ccc(/C=C/C(=O)NO)cc2)CC1)C(=O)OC1CCCC1 [Example 81, Cyclopentyl O-tert-butyl-N-(1-{4-[(1E)-3-(hydroxyamino)-3-oxoprop-1-en-1-yl]benzyl}piperidin-4-yl)-L-serinate] | 101 to 1000 | < 330 | 331 to 3300 | < 330
CC(C)(C)OC[C@H](NCc1ccc(CNCc2ccc(/C=C/C(=O)NO)cc2)cc1)C(=O)OC1CCCC1 [Example 75, Cyclopentyl O-tert-butyl-N-{4-[({4-[(1E)-3-(hydroxyamino)-3-oxoprop-1-en-1-yl]benzyl}amino)methyl]benzyl}-L-serinate] | 101 to 1000 | < 330 | 331 to 3300 | < 330
CC1CCCC1OC(=O)[C@@H](NCc1ccc(/C=C/C(=O)NO)cc1)C1CCCCC1 (stereo partly drawn) [Example 27, 2-Methylcyclopentyl (2S)-cyclohexyl({4-[(1E)-3-(hydroxyamino)-3-oxoprop-1-en-1-yl]benzyl}amino)acetate] | 101 to 1000 | < 330 | 331 to 3300 | 331 to 3300

More lines, main results first:

IC50 [1] [nM] | IC50 (U937 cells) [nM] | IC50 (HeLa cells) [nM] | SMILES | IC50 (HUT78 cells) [nM]
101 to 1000 | 331 to 3300 | 331 to 3300 | O=C(/C=C/c1ccc(CN2CCC(CN[C@H](C(=O)OC3CCCC3)C3CCCCC3)CC2)cc1)NO [Example 83, Cyclopentyl (2S)-cyclohexyl{[(1-{4-[(1E)-3-(hydroxyamino)-3-oxoprop-1-en-1-yl]benzyl}piperidin-4-yl)methyl]amino}acetate] | < 330
101 to 1000 | < 330 | 331 to 3300 | O=C(/C=C/c1ccc(CN[C@H](C(=O)OC2CC3CCC2C3)C2CCCCC2)cc1)NO (stereo partly drawn) [Example 26, Bicyclo[2.2.1]hept-2-yl (2S)-cyclohexyl({4-[(1E)-3-(hydroxyamino)-3-oxoprop-1-en-1-yl]benzyl}amino)acetate] | 331 to 3300
< 100 | 331 to 3300 | 331 to 3300 | O=C(/C=C/c1ccc(CN2CCC(CN[C@H](C(=O)OC3CCCC3)c3ccccc3)CC2)cc1)NO [Example 82, Cyclopentyl (2S)-{[(1-{4-[(1E)-3-(hydroxyamino)-3-oxoprop-1-en-1-yl]benzyl}piperidin-4-yl)methyl]amino}(phenyl)acetate] | 331 to 3300
< 100 | < 330 | > 3300 | CN(C)CCOC(=O)[C@@H](NCc1ccc(/C=C/C(=O)NO)nc1)C1CCCCC1 [Example 57, 2-(Dimethylamino)ethyl (2S)-cyclohexyl[({6-[(1E)-3-(hydroxyamino)-3-oxoprop-1-en-1-yl]pyridin-3-yl}methyl)amino]acetate] | < 330
101 to 1000 | < 330 | > 3300 | O=C(/C=C/c1ccc(CN[C@H](C(=O)OC2CCCC2)c2ccccc2)cc1)NO [Example 17, Cyclopentyl (2S)-({4-[(1E)-3-(hydroxyamino)-3-oxoprop-1-en-1-yl]benzyl}amino)(phenyl)acetate] | 331 to 3300
< 100 | < 330 | 331 to 3300 | O=C(/C=C/c1ccc(CN[C@H](C(=O)OCCN2CCOCC2)C2CCCCC2)cn1)NO [Example 56, 2-Morpholin-4-ylethyl (2S)-cyclohexyl[({6-[(1E)-3-(hydroxyamino)-3-oxoprop-1-en-1-yl]pyridin-3-yl}methyl)amino]acetate] | < 330
101 to 1000 | > 3300 | > 3300 | O=C(/C=C/c1cccc(S(=O)(=O)N[C@H](C(=O)OC2CCCC2)c2ccccc2)c1)NO [Example 1, cyclopentyl (2S)-[({3-[(1E)-3-(hydroxyamino)-3-oxoprop-1-en-1-yl]phenyl}sulfonyl)amino](phenyl)acetate] | > 3300
101 to 1000 | < 330 | 331 to 3300 | O=C(/C=C/c1ccc(CN2CCC(N[C@H](C(=O)OC3CCCC3)C3CCCCC3)CC2)cc1)NO [Example 80, Cyclopentyl (2S)-cyclohexyl[(1-{4-[(1E)-3-(hydroxyamino)-3-oxoprop-1-en-1-yl]benzyl}piperidin-4-yl)amino]acetate] | < 330
101 to 1000 | 331 to 3300 | > 3300 | CC(C)C[C@H](NCc1ccc(CCC(=O)NO)cc1)C(=O)OCCN(C)C [Example 38, 2-(Dimethylamino)ethyl N-{4-[3-(hydroxyamino)-3-oxopropyl]benzyl}-L-leucinate] | > 3300
< 100 | < 330 | 331 to 3300 | O=C(/C=C/c1ccc(CN[C@H](C(=O)OC2Cc3ccccc3C2)C2CCCCC2)cn1)NO [Example 55, 2,3-Dihydro-1H-inden-2-yl (2S)-cyclohexyl[({6-[(1E)-3-(hydroxyamino)-3-oxoprop-1-en-1-yl]pyridin-3-yl}methyl)amino]acetate] | < 330
< 100 | 331 to 3300 | 331 to 3300 | O=C(/C=C/c1cccc(S(=O)(=O)N[C@H](C(=O)OC2CCCC2)C2CCCCC2)c1)NO [Example 2, Cyclopentyl (2S)-cyclohexyl[({3-[(1E)-3-(hydroxyamino)-3-oxoprop-1-en-1-yl]phenyl}sulfonyl)amino]acetate] | 331 to 3300
